Columns and labels:
[1] = system: accumulation of sorbitol in the sciatic nerves; test: Inhibition of accumulation of sorbitol in sciatic nerves of diabetic rats; format: in vivo, Sprague Dawley rats; conditions: oral 25 mg/kg at 0, 7 and 24 h, sacrificed 27 h
Experimental: (§1) 2.1 Inhibition of accumulation of sorbitol in crystalline lenses and nerves of diabetic rats:
(§2) The effects of the products according to the invention on the proportion of plasma glucose and the accumulation of sorbitol in the crystalline lenses and sciatic nerves of rats made diabetic by streptozotocin were examined by the method of M. J. Peterson, et al (Metabolism, 28, 456-461 (1979)).
(§3) Fasted Sprague Dawley rats were made diabetic by intraperitoneal injection of streptozotocin (75 mg/kg). The product under test was orally administered at a dose of 25 mg/kg after 0, 7 and 24 hours. The rats were sacrificed 27 hours after induction of diabetes. The crystalline lenses and sciatic nerves were taken and preserved at -20° C. until analysed. The crystalline lenses and sciatic nerves were homogenized in water and the proteins were precipitated from ethanol. The precipitate was eliminated by centrifuging and the supernatant liquid was lyophylised. The sorbitol in the sample was determined by the method of B. Bjorkqvist (J. of Chromatograph, 218, 65-71 (1981)), adapted by A. Lenaers et al. (Arch. Intern. Physiol. Bioch., 91, B, 62-63 (1983)).
(§4) The sample was dissolved in pyridine containing galactitol as an internal standard. Derivatives were formed therefrom by phenylisocyanate during incubation for 1 hour at 60° C. The reaction was then stopped by adding methanol and the derivatives were separated and determined by HPLC.
(§5) The results are expressed as percentage inhibition of the accumulation of sorbitol, compared with the controls.

[2] = system: accumulation of sorbitol in the crystalline lenses; test: Inhibition of accumulation of sorbitol in crystalline lenses of diabetic rats; format: in vivo, Sprague Dawley rats; conditions: for Inhibition of accumulation of sorbitol in vivo, crystalline lenses: oral 25 mg/kg at 0, 7 and 24 h, sacrificed 27 h; for inhibition of accumulation of sorbitol in crystalline lenses and sciatic nerves (in words): oral 25 mg/kg
Experimental: as §1, §2, §3, §4, §5

[3] = Acute oral toxicity (LD50); format: in vivo; conditions: mouse, in vivo, mice, read-out: Lethal dose LD50
Experimental: The LD 50 was calculated by the method of Litchfield and Wilcoxon (J. Pharmacol. Exp. Ther., 96, 99, 1949) and is expressed in mg/kg. The products were orally administered to mice.
Behaviour was studied, 2, 4, 6 and 24 hours after treatment. Observation was continued if symptoms persisted at that time. Deaths were recorded during the 14 days after treatment. The results are given in Table II, in which the numbers of the compounds are the same as the numbers given in column 1 of Table I.

[4] = system: accumulation of galactitol in fibroblasts obtained from human skin; test: Inhibition of accumulation of galactitol in fibroblasts; format: cell-based; conditions: Fibroblast, 48 h, 37° C., galactose 3 mg/ml
Experimental: 1.2 Inhibiting effect on accumulation of galactitol:
A test for evaluating this activity was made in vitro on fibroblasts obtained from human skin.
An experimental model culture was obtained by incubating the cells in the presence of a medium containing a high concentration of galactose (3 mg/ml) and the product under test, and measuring the accumulation of galactitol in the cells after a 48-hour incubation period at 37° C. The cells were then isolated, washed in physiological salt solution and treated with a water-ethanol solution. The medium was centrifuged and the supernatant liquid was lyophylized.
The galactitol in the resulting sample was determined by HPLC (=high pressure liquid chromatography) after derivatives had been obtained with phenyl isocyanate.
The proportion of proteins in the precipitate obtained during the previously-mentioned centrifuging was measured by the method of M. M. Bradford (Anal. Biochem., 72, 248-254 (1976)) and indicated the number of cells present in the sample.
The inhibiting effect of the tested product was expressed as a percentage inhibition of intracellular accumulation of galactitol compared with the controls.

[5] = target: T1, aldose reductase (Rattus norvegicus, UniProt P07943); test: Inhibition of enzymatic activity of aldose reductase in vitro; format: biochemical; conditions: 10^-4 M, rat crystalline lens enzyme, pH 6.2, D,L-glyceraldehyde substrate; read-out: Inhibition of enzymatic activity of AR in vitro
T1 construct: The supernatant liquid formed the enzyme solution used for the test; from tissue; host or cells: rat crystalline lens, water homogenate, supernatant
Text: 1.1 Inhibiting effect on enzymatic activity of aldose reductase:
The method described by S. Hayman and J. H. Kinoshita (J. Biol. Chem., 240, 877 (1965)) was used for in vitro testing of the aforementioned effect of the products according to the invention.
Rat's crystalline lens was homogenized in water and centrifuged to eliminate insoluble substances. The supernatant liquid formed the enzyme solution used for the test.
The effect of products according to the invention in inhibiting enzymatic activity of aldose reductase was determined by spectrophotometrically following for 5 minutes the disappearance of NADPH in an aqueous solution containing 0.067M phosphate buffer (final pH: 6.2), 0.40M lithium sulphate, 5.10^-5 M NADPH, 10^-4 M of the product under test and 100 μl of the enzyme solution, to which 10^-2 M of D,L-glyceraldehyde had been added as substrate. (NADPH=reduced form of nicotinamide adenine dinucleotide phosphate).
The inhibiting effect observed in the presence of 10^-4 M of product under test relative to the reaction in the absence of a compound according to the invention, is expressed as a percentage.

| Compound | Inhibition of accumulation of sorbitol in vivo, in sciatic nerves [1] | Inhibition of accumulation of sorbitol in vivo, crystalline lenses [2] | LD50 at 336 h [3] | inhibition at 100 µM ([4]; 10^-4 M) | inhibition at 10 µM ([4]; 10^-5 M) | inhibition at 1 µM ([4]; 10^-6 M) | inhibition of accumulation of sorbitol in crystalline lenses and sciatic nerves (in words) [2] | inhibition at 100 µM [5] |
| --- | --- | --- | --- | --- | --- | --- | --- | --- |
| O=C(OCN1C(=O)N(COC(=O)c2ccccc2)C2(C1=O)c1ccccc1-c1ccccc12)c1ccccc1 [Compound 3] | 55% | 37% | > 3000 mg/kg | – | – | – | – | – |
| CC(C)(C)C(=O)OCN1C(=O)N(COC(=O)C(C)(C)C)C2(C1=O)c1ccccc1-c1ccccc12 [Compound 4] | 50% | 51% | – | – | – | – | – | – |
| CCC(=O)OCN1C(=O)N(COC(=O)CC)C2(C1=O)c1ccccc1-c1ccccc12 [Compound 5, bis-(1',3'-propanoyloxymethyl)-spiro-[fluorene-9,4'-imidazolidine]-2',5'-dione] | 81% | 74% | – | 91% | 56% | 24% | particularly active | – |
| CCCCCCCC(=O)OCN1C(=O)N(COC(=O)CCCCCCC)C2(C1=O)c1ccccc1-c1ccccc12 [Compound 6, bis-(1',3'-n.octanoyloxymethyl)-spiro-/fluorene-9,4'-imidazolidine/-2',5'-dione] | 79% | 76% | > 3000 mg/kg | – | – | – | – | 0% |
| CC(OC(=O)C(C)(C)C)N1C(=O)NC2(C1=O)c1ccccc1-c1ccccc12 (stereo not shown) [Compound 7, 1'-/1-(2,2-dimethylpropanoyloxy)-ethyl/-spiro-/fluorene-9,4'-imidazolidine/-2',5'-dione] | 72% | 45% | – | – | – | – | – | – |
| O=C(CCCC1CCCCC1)OCN1C(=O)N(COC(=O)CCCC2CCCCC2)C2(C1=O)c1ccccc1-c1ccccc12 [Compound 8] | 85% | 69% | > 3000 mg/kg | – | – | – | particularly active | – |
| CC(C)(C)CC(=O)OCN1C(=O)N(COC(=O)CC(C)(C)C)C2(C1=O)c1ccccc1-c1ccccc12 [Compound 9] | 70% | 49% | > 1000 mg/kg | – | – | – | – | – |
| CCOC(=O)OCN1C(=O)N(COC(=O)OCC)C2(C1=O)c1ccccc1-c1ccccc12 [Compound 10, bis-(1',3'-ethoxycarbonyloxymethyl)-spiro-/fluorene-9,4'-imidazolidine/-2',5'-dione] | 84% | 80% | > 3000 mg/kg | – | – | – | particularly active | – |
| O=C(CCCc1ccccc1)OCN1C(=O)N(COC(=O)CCCc2ccccc2)C2(C1=O)c1ccccc1-c1ccccc12 [Compound 11] | 24% | 4% | – | – | – | – | – | 0% |
| O=C(OCN1C(=O)N(COC(=O)C2CCCCC2)C2(C1=O)c1ccccc1-c1ccccc12)C1CCCCC1 [Compound 12] | 48% | 12% | > 1000 mg/kg | – | – | – | – | – |
| O=C(OCc1ccccc1)OCN1C(=O)N(COC(=O)OCc2ccccc2)C2(C1=O)c1ccccc1-c1ccccc12 [Compound 13] | 50% | 33% | – | – | – | – | – | – |
| O=C(COc1ccccc1)OCN1C(=O)N(COC(=O)COc2ccccc2)C2(C1=O)c1ccccc1-c1ccccc12 [Compound 14] | 61% | 51% | > 1000 mg/kg | – | – | – | – | – |
| CCCCC(=O)OCN1C(=O)N(COC(=O)CCCC)C2(C1=O)c1ccccc1-c1ccccc12 [Compound 15] | 74% | 54% | – | – | – | – | – | 0% |
| O=C(OCN1C(=O)N(COC(=O)Oc2ccccc2)C2(C1=O)c1ccccc1-c1ccccc12)Oc1ccccc1 [Compound 16] | 65% | 53% | > 3000 mg/kg | – | – | – | – | – |
| COCN1C(=O)NC2(C1=O)c1ccccc1-c1ccccc12 [Compound 17, 1'-(methoxymethyl)-spiro-/fluorene-9,4'-imidazolidine/-2',5'-dione] | 92% | 86% | – | – | – | – | particularly active | 84% |
| O=C(Nc1ccccc1)OCN1C(=O)N(COC(=O)Nc2ccccc2)C2(C1=O)c1ccccc1-c1ccccc12 [Compound 18, bis-(1',3'-N-phenylcarbamoyloxymethyl)-spiro-/fluorene-9,4'-imidazolidine/-2',5'-dione] | 17% | 8% | > 3000 mg/kg | – | – | – | – | – |
| O=C(OCN1C(=O)N(COC(=O)C2CCCC2)C2(C1=O)c1ccccc1-c1ccccc12)C1CCCC1 [Compound 19] | 89% | 77% | > 3000 mg/kg | – | – | – | particularly active | – |
| CCC(C(=O)OCN1C(=O)N(COC(=O)C(CC)c2ccccc2)C2(C1=O)c1ccccc1-c1ccccc12)c1ccccc1 (stereo not shown) [Compound 20] | 77% | 60% | > 3000 mg/kg | – | – | – | – | – |
| CC(=O)OCN1C(=O)NC2(C1=O)c1ccccc1-c1ccccc12 [Compound 21, 1'-(acetoxymethyl)-spiro-/fluorene-9,4'-imidazolidine/-2',5'-dione] | 94% | 85% | > 1000 mg/kg | – | – | – | particularly active | 8% |
| CNC(=O)OCN1C(=O)N(COC(=O)NC)C2(C1=O)c1ccccc1-c1ccccc12 [Compound 22] | 17% | 21% | – | – | – | – | – | 0% |
